Our source for the IC50 values is patent US20170166555A1, “FUNCTIONALISED AND SUBSTITUTED INDOLES AS ANTI-CANCER AGENTS” (Novogen Limited, priority 2013, published 2017).

Broadly, the IC50 is the midpoint of a concentration-inhibition curve. Read a high IC50 as a need for much substance.

Test [1] has as its system glioblastoma (U251) cells. Put plainly: Cell viability, CellTiter 96 AQueous, 72 hours. Format: cell-based. The following applies: Homo sapiens, U-251. On the procedure:
(§1) The anti-proliferative activity of compound 4093 against ovarian cancer (SKOV3) and glioblastoma (U251) cells was also evaluated (Table 6). Briefly, cells were seeded at 2000 cells/well in a 96 well plate. 24 hrs post plating, each cell line was exposed to various concentrations of ATM-4093 (10, 5, 3,1, 0.7, 0.5, 0.3, 0.1 μM) for 72 hours. Cell viability was determined using CellTiter 96 AQueous (Promega) and absorbance measured at 490 nm on the SpectraMax M2 plate reader. Cell viability was normalized to control (vehicle alone) and dose-response curves, and half maximal effective concentration (EC50) values were determined using Graph Pad Prism 6 (nonlinear regression sigmoidal dose-response variable slope).

Test [2] has as its system ovarian cancer (SKOV3) cells. Put plainly: Cell viability, CellTiter 96 AQueous, 72 hours. Format: cell-based. The note with it: Homo sapiens, SK-OV-3. On the procedure:
as §1

Regarding `Cc1c(C)n(CCCN(C)C)c2ccc(Oc3ccc(C(=O)Nc4ccc(F)cc4)cc3)cc12` [Compound 4093, 4-((1-(3-(dimethylamino)propyl)-2,3-dimethyl-1H-indol-5-yl)oxy)-N-(4-fluorophenyl)benzamide], the IC50 in test [1] turned out to be 0.5 µM; in test [2], 0.6 µM.
